# Reference: patent EP1541138A1, “Novel use of peptide compounds for treating status epilepticus or related conditions” (SCHWARZ PHARMA AG, priority 2003, dated 2005)
# Tests used:
# [1] = SSSE after brief electrical stimulation of the perforant path (EEG monitoring for 24 hrs); type: in vivo, male Wistar rats; settings: for cumulative seizure duration over the 24h period / time to the last seizure: Experiment 1a: 60 minutes stimulation, i.v. 10 min after end of perforant path stimulation, SPM 927 50 mg/kg, PHT 50 mg/kg, DZP 10 mg/kg, compared to control animals (Fig. 1); for time after injection within which seizures stopped: 50 mg/kg i.v. (fosphenytoin: phenytoin equivalent) 10 min after end of stimulation (Fig. 2A); for Spike frequency (number of spikes/10 min): 50 mg/kg i.v., vs control animals (Fig. 2B)
# Method: (§1) Animals: The experiments were performed on male Wistar rats, 280-300g (Simonsen Labs, CA). Animals were kept at a constant room temperature with 12 hours artificial dark-light cycle with free access to standard diet and tap water.
# Surgery: Under ketamine (60 mg/kg)/xylazine (15 mg/kg) anesthesia, animals were implanted with a bipolar stimulating electrode into the angular bundle of the perforant path (4.5 mm to left lambda, 1 mm anterior to lambdoid fissure) and a bipolar recording electrode into the granule cell layer of the ipsilateral dentate gyrus (3.5 mm anterior to lambda, 2.2 mm left to saggital fissure). Depth of both electrodes was optimized by monitoring the amplitude and waveform of the population spike evoked from the dentate gyrus by stimuli delivered through the perforant path (single square wave monophasic stimuli, 20 V, 0.1 ms delivered every 10 s).
# Induction of self-sustaining status epilepticus (SSSE): Seven days after surgery, animals were connected to a Cardionics 16 channel preamplifier, which was connected to the IBM computer. After 5 minutes of baseline EEG recording, animals were stimulated in the awake state for 60 minutes (Experiment 1 a) or 30 minutes (Experiments 1b and 1 c) with 10 s 20 Hz trains (1 ms square wave, 20 V) delivered every minute, together with 2 Hz continuous stimulation with the same parameters.
# EEG monitoring and analysis: EEG from the dentate gyrus was monitored and recorded by means of commercial software (Monitor 8.1 from Stellate Systems). The software was configured for automatic detection and saving of spikes and seizures. Monitoring was performed for 24 hrs. EEG was analyzed off line by means of the same software. Spike distribution was presented as number of spikes per 10 min epoch, and the cumulated duration of seizures for 24 hrs of monitoring were calculated. Statistical analysis was performed by means of T-test. A p value less than 0.05 was considered statistically significant.
# Drug administration: SPM 927 (50 mg/kg, 5 animals), phenytoin (PHT) (50 mg/kg), Fosphenytoin (F-PTH Porte-Davis, 50 mg/kg of phenytoin equivalent, 5 animals), diazepam (DZP) (10mg/kg) or vehicle (VEH, 10% DMSO, 6 animals) were given i.v. 10 min after the end of perforant path stimulation in a volume of 1 ml/kg.
# [2] = Chemically induced SSSE (cobalt/homocysteine model, homocysteine thiolactone injection); type: in vivo, Male Sprague-Dawley rats
# Method: Male Sprague-Dawley rats were prepared surgically with cobalt powder on the left frontal cortical surface.
# Recording and stimulation protocol: four epidural recording electrodes arranged in a square grid (5mm) over the cobalt lesion. EEG was monitored daily beginning 4-5 days following surgery. Status epilepticus was induced by i.p. injection of 5.5mmol/kg homocysteine thiolactone whenever focal motor behaviour and EEG seizures were observed.
# Drug administration: SPM 927 was administered (10-100mg/kg) immediately following the second generalized tonic-clonic seizure (GTCS) occurring after homocysteine thiolactone injection.
# [3] = Hippocampal damage following SSSE (count of damaged neurons in brain sections, light microscopy); type: in vivo, male Wistar rats
# Method: as §1
# Surgery: Under ketamine (60 mg/kg)/xylazine (15 mg/kg) anesthesia, animals were implanted with a bipolar stimulating electrode into the angular bundle of the perforant path (4.5 mm to left lambda, 1 mm anterior to lambdoid fissure) and a bipolar recording electrode into the granule cell layer of the ipsilateral dentate gyrus (3.5 mm anterior to lambda, 2.2 mm left to saggital fissure). […]
# Selection of sections for counting: Selection of sections for counting was controlled by the stereotaxic atlas for rats (Paxinos and Watson). The 3 sections selected for quantitation contained dorsal hippocampus and were 1.6 ±0.05mm posterior to bregma.
# Location of counting fields ― damage to the pyramidal cell layer was assessed by counting damaged neurons in the subiculum, CA1, CA3, CA3c and the hilus in the dorsal hippocampus. The neurons were assessed individually from the beginning of the subiculum to the end of the CA3c region using an Olympus Provis Ax 70 microscope at a magnification of 40x. […]
# Criteria for differentiation of damaged versus non-damaged neurons - neurons were counted only if the majority of the nucleus was present in the section. […]
# [4] = Experiment 1b: 30 minutes stimulation
# [5] = SPM 927 10-100mg/kg immediately following the second GTCS, 30 min following treatment
SMILES,cumulative seizure duration over the 24h period [1],time to the last seizure [1],"time after injection within which seizures stopped [1, 4] [min]","Spike frequency (number of spikes/10 min) [1, 4]","latency to the first GTCS [2, 5]","mean number of GTCS [2, 5]","number of rats experiencing GTCS ([2]; SPM 927 10-100mg/kg immediately following the second GTCS, observed 30 min following treatment)","GTCS at the highest dose ([2]; highest dose of SPM 927 (range 10-100mg/kg), 30 min following treatment)","efficacy on both parameters (cumulative seizure duration, time to the last seizure) when compared to DZP and PHT ([1]; Experiment 1a, SPM 927 50 mg/kg i.v. vs DZP 10 mg/kg and PHT 50 mg/kg (Fig. 1))","recurrence of seizures over the next 24 hrs ([1]; Experiment 1b: 30 minutes stimulation, 50 mg/kg i.v. (Fig. 2A))","time for which only a few single spikes were recorded ([1]; Experiment 1b: 30 minutes stimulation, 50 mg/kg i.v. (Fig. 2B))","injured neurons in hippocampal fields ([3]; Experiment 1c: 30 minutes stimulation, SPM 927 50 mg/kg i.v., brains collected 72 hours after SSSE, subiculum, CA1, CA3, CA3c, hilus)","protection against neuronal injury, statistical significance ([3]; Experiment 1c, vs untreated rats, by hippocampal field)"
"CN1C(=O)CN=C(c2ccccc2)c2cc(Cl)ccc21 [DZP, diazepam, reference compound]",potently and significantly reduced,potently and significantly reduced,,,,,,,,,,,
"O=C1NC(c2ccccc2)(c2ccccc2)C(=O)N1COP(=O)(O)O [Fosphenytoin, reference compound]",,,≤ 15,significantly lower than in control animals but significantly higher than in SPM 927 treated rats,,,,,,,,,
"O=C1NC(=O)C(c2ccccc2)(c2ccccc2)N1 [PHT, phenytoin, reference compound]",potently and significantly reduced,potently and significantly reduced,,,,,,,,,,,
"COC[C@@H](NC(C)=O)C(=O)NCc1ccccc1 [SPM 927, (R)-2-acetamide-N-benzyl-3-methoxypropionamide]",potently and significantly reduced,potently and significantly reduced,≤ 15,significantly decreased,prolonged,potently reduced,reduced in a dose-dependent fashion,completely abolished all GTCS,somewhat more efficacious,did not recur,about 12 hrs,only an occasional injured neuron in any hippocampal field,"statistically significant in the subiculum, CA1 and CA3"
